How the values were obtained:
hRPIA = test: Western blot of hRPIA protein level after siRNA knockdown or pcDNA3-hRPIA transfection; format: cell-based, human; details: siRNA knockdown, 48 hours
Hep3B liver cancer cells = test: MTT cell viability assay, Hep3B; format: cell-based
Source text: (§1) Further, we used 3-(4,5-dimethylthiazol-2-yl)-2,5-diphenyltetrazolium bromide (MTT) assay to examine whether the knockdown of hRPIA reduces cancer cell viability. […] A similar data was obtained in PLC5 and HepG2 (FIG. 3B and FIG. 3C respectively).
(§2) Further, we used 3-(4,5-dimethylthiazol-2-yl)-2,5-diphenyltetrazolium bromide (MTT) assay to examine whether the over-expression of hRPIA in cancer cells induces cancer cell viability. […] A similar data was obtained in PLC5 and HepG2 (FIG. 7B and FIG. 7C respectively).
(§3) To examine the influence of chemotherapeutic agents on cell growth of liver cancer cell after knocking down of hRPIA, we used specific siRNA to knockdown hRPIA expression and then added 5-fluorouracil (5-FU) by 0, 5, 15, 25 μg/mL into Hep3B, PLC5 and HepG2. Further, we used 3-(4,5-dimethylthiazol-2-yl)-2,5-diphenyltetrazolium bromide (MTT) assay to examine whether the over-expression of hRPIA in cancer cells induces cancer cell viability.

PLC5 liver cancer cells = test: MTT cell viability assay, PLC5; format: cell-based; details: PLC5, 5-FU 0, 5, 15, 25 μg/mL, vs si-negative control transfected cells
Source text: as §1, §2, §3

HepG2 liver cancer cells = test: MTT cell viability assay, HepG2; format: cell-based; details: HepG2, 5-FU 0, 5, 15, 25 μg/mL, vs si-negative control transfected cells
Source text: as §1, §2, §3

SW480 colon cancer cells = test: MTT cell viability assay, SW480; format: cell-based; details: for cell viability by MTT assay after hRPIA knockdown: SW480, 20 nM siRNA
Source text: (§4) Further, we used 3-(4,5-dimethylthiazol-2-yl)-2,5-diphenyltetrazolium bromide (MTT) assay to examine whether the knockdown of hRPIA reduces cancer cell viability. […] A similar data was obtained in SW620 (FIG. 5B).
(§5) Further, we used 3-(4,5-dimethylthiazol-2-yl)-2,5-diphenyltetrazolium bromide (MTT) assay to examine whether the over-expression of hRPIA in cancer cells induces cancer cell viability. […] A similar data was obtained in SW620 (FIG. 9B).
(§6) To examine the influence of chemotherapeutic agents on cell growth of colon cancer cell after knocking down of hRPIA, we used specific siRNA to knock down hRPIA expression and then added 5-fluorouracil (5-FU) by 0, 5, 15, 25 μg/mL into SW480 and SW620. Further, we used 3-(4,5-dimethylthiazol-2-yl)-2,5-diphenyltetrazolium bromide (MTT) assay to examine whether the over-expression of hRPIA in cancer cells induces cancer cell viability.

SW620 colon cancer cells = test: MTT cell viability assay, SW620; format: cell-based
Source text: as §4, §5, §6

Hep3B = test: Wound healing assay (cell motility), Hep3B; format: cell-based; details: Hep3B, 0, 18 and 24 hours
Description: To examine whether the knockdown of hRPIA in cancer cells reduces cell motility, we used specific siRNA to knock down hRPIA expression. To quantify the cancer cell survival rate under the treatment of siRNA against hRPIA which sequence is: […] (SEQ NO. 1) and; […] (SEQ NO. 2) for 0, 18 and 24 hours, we perform wound healing assay to examine the cell motility of hRPIA in Hep3B which were treated with siRNA-hRPIA (cultured in 10% fetal bovine serum with DMEM in 37° C., 5% CO2 for 48 hours) as shown in FIG. 12 respectively. As shown in the figs, the cell motility is lower after adding siRNA.

SW480 = test: Wound healing assay (cell motility), SW480; format: cell-based; details: SW480, 0, 14 and 24 hours
Description: To examine whether the knockdown of hRPIA in colon cancer cells reduces cell motility, we used specific siRNA to knock down hRPIA expression. To quantify the cancer cell survival rate under the treatment of siRNA against hRPIA which sequence is: […] (SEQ NO. 1) and; […] (SEQ NO. 2) for 0, 14 and 24 hours, we perform wound healing assay to examine the cell motility of hRPIA in SW480 which were treated with siRNA-hRPIA (cultured in 10% fetal bovine serum with DMEM in 37 °C, 5% CO2 for 48 hours) as shown in FIG. 13 respectively. As shown in the figs, the cell motility is lower after adding siRNA.

caspase-3 = test: Western blot of caspase-3 after hRPIA siRNA knockdown; format: cell-based
Source text: (§7) To examine whether the knockdown of hRPIA in hepatic cancer cells induces cell apoptosis, we used specific siRNA which sequence is: […] (SEQ NO. 1) and; […] (SEQ NO. 2) to knock down hRPIA expression. Next, we used western blot to examine the protein level of caspase-3 and β-catenin. […] A similar data was obtained in PLC5 and HepG2 (FIG. 14B and FIG. 14C respectively).
(§8) To examine whether the knockdown of hRPIA in colon cancer cells induces cell apoptosis, we used specific siRNA which sequence is: […] (SEQ NO. 1) and; […] ([…]) to knock down hRPIA expression. Next, we used western blot to examine the protein level of caspase-3 and β-catenin.

β-catenin = test: Western blot of β-catenin after hRPIA siRNA knockdown; format: cell-based
Source text: as §7, §8

## siRNA-hRPIA: siRNA against hRPIA, sequence UUCACUUCACUCCAUUUGUGUACCC (SEQ NO. 1) and GGGUACACAAAUGGAGUGAAGUGAA (SEQ NO. 2) (listed as RNA, chemistry not given here)
hRPIA; Hep3B liver cancer cells, vs si-negative control
  hRPIA protein level (western blot): lower
hRPIA; HepG2 liver cancer cells
  hRPIA protein level (western blot): lower
hRPIA; PLC5 liver cancer cells, vs si-negative control
  hRPIA protein level (western blot): lower
hRPIA; SW480 colon cancer cells
  hRPIA protein level (western blot): lower
hRPIA; SW620 colon cancer cells
  hRPIA protein level (western blot): lower
Hep3B liver cancer cells; 20 nM siRNA
  cell viability by MTT assay after hRPIA knockdown: significant reduction in cell viability
Hep3B liver cancer cells; 5-FU 0, 5, 15, 25 μg/mL, vs si-negative control transfected cells
  cytotoxicity caused by 5-fluorouracil after hRPIA knockdown (MTT): significantly enhanced the cytotoxicity
PLC5 liver cancer cells
  cytotoxicity caused by 5-fluorouracil after hRPIA knockdown (MTT): significantly enhanced the cytotoxicity
HepG2 liver cancer cells
  cytotoxicity caused by 5-fluorouracil after hRPIA knockdown (MTT): significantly enhanced the cytotoxicity
SW480 colon cancer cells
  cell viability by MTT assay after hRPIA knockdown: significant reduction in cell viability
SW480 colon cancer cells; listed as siRNAs against hRPIA
  cell viability by MTT assay after hRPIA knockdown: significantly reduced cell viability
SW480 colon cancer cells; SW480, 5-FU 0, 5, 15, 25 μg/mL, vs si-negative control transfected cells
  cytotoxicity caused by 5-fluorouracil after hRPIA knockdown (MTT): significantly enhanced the cytotoxicity
SW620 colon cancer cells; SW620, 20 nM siRNA
  cell viability by MTT assay after hRPIA knockdown: significantly reduced cell viability
SW620 colon cancer cells; SW620, 5-FU 0, 5, 15, 25 μg/mL, vs si-negative control transfected cells
  cytotoxicity caused by 5-fluorouracil after hRPIA knockdown (MTT): significantly enhanced the cytotoxicity
Hep3B
  cell motility (wound healing assay): lower
SW480
  cell motility (wound healing assay): lower
caspase-3; Hep3B, 48 hours
  caspase-3 protein level (western blot): increased activity of caspase-3
caspase-3; HepG2
  caspase-3 protein level (western blot): increases caspase-3 expression
caspase-3; PLC5
  caspase-3 protein level (western blot): increases caspase-3 expression
caspase-3; SW480, 48 hours
  caspase-3 protein level (western blot): increased activity of caspase-3
β-catenin; Hep3B
  β-catenin protein level (western blot): slightly reduction
β-catenin; HepG2
  β-catenin protein level (western blot): significant reduction
β-catenin; PLC5
  β-catenin protein level (western blot): slightly reduction
β-catenin; SW480
  β-catenin protein level (western blot): significant reduction

— patent publication US8785412B2, “Method for inducing cancer cell apoptosis or inhibiting the cancer cell migration” (National Tsing Hua University, priority 2011, dated 2014)
